One assay relates to RAW 264.7 cells. Briefly: Comparative affinity chromatography of LPS-stimulated, leflunomide-treated RAW 264.7 cytosol extracts. Type of assay: cell-based. As to conditions: RAW 264.7, 10 ng LPS/ml plus 60 μM A 77 1726B, 24 hours; FRACTOGEL column derivatized according to Example 10. The source says: The stimulation of the macrophage cell line RAW 264.7 with lipopolysaccharide was used as an in vitro model for inflammatory processes. Lipopolysaccharide ("LPS") is an essential structural constituent of the outer membrane of Gram-negative bacteria and is recognized as such by immune cells of almost all organisms. In particular, macrophages are activated by LPS stimulation to synthesize a number of cytokines such as TNF-α, IL-1 and IL-6. Potential changes in the protein pattern which accompany this stimulation should be prevented by the simultaneous administration of the immunoregulatory preparation leflunomide.
RAW 264.7 cells were incubated with 10 ng of LPS/ml of culture medium for 24 hours. In the case of LPS-stimulated, leflunomide-treated cells, incubation was simultaneously carried out with 60 μM A 77 1726B for 24 hours. The cells were processed and the cytosolic extracts investigated by affinity chromatography with the aid of the FRACTOGEL® column derivatized according to Example 10. The preparation fractions of these three batches were then applied to an analytical gradient gel and compared with one another.

The test system of the next assay is A20.2.J. Briefly: Proliferation test, cell line A20.2.J. As to conditions: 72 h, tritium-thymidine incorporation, read-out: concentrations at which a 50% inhibition occurs, A20.2.J. Type of assay: cell-based. As to the method: (§1) Clicks/RPMI 1640 medium (50:50) with L-glutamine and without NaHCO3 in powder form for 10 l (Seromed, Biochrom, Berlin, FRG), is dissolved in 9 l of double-distilled water and sterile-filtered into bottles each containing 900 ml.
(§2) For keeping tumor cells and hybridoma cells, use medium containing 5% FCS is prepared.
(§3) For keeping cell lines, 900 ml of use medium containing 10% FCS, 10 ml of NEA (non-essential amino acids) solution (Gibco), 10 ml of sodium pyruvate solution (100 mM, Gibco) and 5 ml of 10^-2 M mercaptoethanol are mixed.
(§4) The tumor cells or cell lines used in the test are taken from the stock solution in the logarithmic growth phase, washed twice with wash medium and suspended in the appropriate medium.
(§5) The proliferation test is carried out in round-bottom microtiter plates. Compounds of the formula I and interleukins are dissolved in 50 μl each/hollow of the appropriate medium and the cell count (5×10^5) is adjusted with 100 μl/hollow so that a final volume of 200 μl/hollow results. In all tests, the values are determined four times. Cells without preparations and without growth factor are defined as a negative control and cells without preparation with growth factor afford the values for the positive control. The value of the negative control is subtracted from all values determined and the difference of positive control minus negative control is set at 100%.
(§6) The microtiter plates are incubated at 37° C./5% CO2 for 72 h and the proliferation rate is determined correspondingly as in mitogen-induced lymphocyte proliferation. The cell lines were obtained from the strain collection, American Type Culture Collection ("ATCC").
(Incorporation of labelled thymidine or its analogues reports DNA synthesis.)

The next assay relates to EL 4. In words: Proliferation test, cell line EL 4. Type of assay: cell-based. The conditions noted are these: Mus musculus, EL4; cell line EL 4, 72 h, tritium-thymidine incorporation; read-out: concentrations at which a 50% inhibition occurs, EL 4. The procedure: as §1, §2, §3, §4, §5, §6
The test system of the next assay is K562. In words: Proliferation test, cell line K562. Type of assay: cell-based. As to conditions: Homo sapiens; cell line K562, 72 h, tritium-thymidine incorporation; read-out: concentrations at which a 50% inhibition occurs, K562. As to the method:
as §1, §2, §3, §4
The proliferation test is carried out in round-bottom microtiter plates. Compounds of the formula I and interleukins are dissolved in 50 μl each/hollow of the appropriate medium and the cell count (5×10^5) is adjusted with 100 μl/hollow so that a final volume of 200 μl/hollow results. In all tests, the values are determined four times. […] The value of the negative control is subtracted from all values determined and the difference of positive control minus negative control is set at 100%.
The microtiter plates are incubated at 37° C./5% CO2 for 72 h and the proliferation rate is determined correspondingly as in mitogen-induced lymphocyte proliferation. […]

The next assay deals with Pyruvate kinase DH. Briefly: BIAcore binding of dehydrogenases to chip coated with compound of Example 2. The conditions noted are these: compound immobilised on CM5 chip. As to the method:
(§7) The starting material is a CM5 chip from Pharmacia Biosensor having a carboxymethyldextran surface (BIApplication Handbook, Ed. 1994, Merck AB, Uppsala, Sweden). The coupling steps are all carried out at a flow rate of 5 μl/min. All steps are carried out at 25° C. using Hepes buffered saline ("HBS") pH 7.4 as the running buffer.
(§8) 1st step: 35 μl of a 1:1 mixture of 0.05 M NHS (N-hydroxysuccinimide) and 0.2 M EDC (N-ethyl-N'-(dimethylaminopropyl)carbodiimide) in order to activate the chip surface.
(§9) 2nd step: 35 μl of a 40 mM cystamine dihydrochloride solution in 0.1 M sodium borate buffer pH 8.5.
(§10) 3rd step: 35 μl of ethanolamine hydrochloride pH 8.5 to saturate unoccupied matrix structures.
(§11) 4th step: 35 μl of 0.1 M dithiothreitol in 0.1 M sodium borate buffer pH 8.5.
(§12) 5th step: 35 μl of a solution containing compound according to Example 2 (10 mg/ml) in 0.1 M sodium borate buffer pH 7.5.
(§13) The analysis was carried out essentially as described in Current Biology, Vol. 3, No. 12, pages 913-915 (1993).
(§14) System: BIAcore® 2000 with corresponding software, Pharmacia Biosensor AB, Uppsala, Sweden
(§15) Chip: CM5 sensor chip, Pharmacia Biosensor AB
(§16) Coating: according to Example 8
(§17) Running buffer: HBS buffer, BIA certified, Pharmacia Biosensor AB
(§18) Injection: 5 min association phase per 50 μl of the sample to be analyzed.
(§19) Rinsing time: 180 sec 3 min dissociation phase
(§20) Regeneration: 2×15 sec using 0.05% sodium dodecylsulfate
(§21) The term "Resonance Units" is a quantitative unit which is proportional to the amount of protein bound.
(§22) DH represents the enzyme designation dehydrogenase
On the technique in general: SPR reads the build-up and loss of mass on a sensor chip optically.

For assay [1], the target named is Glyceraldehyde phosphate DH (Homo sapiens, UniProt P04406). Described as above. As to conditions: compound immobilised on CM5 chip. The procedure:
as §7, §8, §9, §10, §11, §12, §13, §14, §15, §16, §17, §18, §19, §20, §21, §22

The target of the next assay is Dihydroorotate DH (Homo sapiens, UniProt Q02127). The description is as above. The conditions noted are these: compound immobilised on CM5 chip. As to the method: as §7, §8, §9, §10, §11, §12, §13, §14, §15, §16, §17, §18, §19, §20, §21, §22
Another assay concerns dehydrogenases. Briefly: BIAcore comparison of relative binding strengths of the dehydrogenases. The conditions noted are these: protein concentration of 1 μM; compound immobilised on CM5 chip. The procedure:
as §13, §14, §15, §16, §17, §18, §19, §20
The relative binding strengths of the dehydrogenases investigated were compared with one another at a defined protein concentration.

In a further assay the target is Mouse serum albumin (Mus musculus, UniProt P07724). Briefly: BIAcore binding of serum albumin to chip coated with compound of Example 2. The conditions noted are these: compound immobilised on CM5 chip according to Example 8. As to the method:
as §7, §8, §9, §10, §11, §12, §13, §14, §15, §16, §17, §18, §19, §20, §21

A further assay concerns the target T1, Chicken serum albumin (Gallus gallus, UniProt P19121).
T1 sequence (P19121 24-615): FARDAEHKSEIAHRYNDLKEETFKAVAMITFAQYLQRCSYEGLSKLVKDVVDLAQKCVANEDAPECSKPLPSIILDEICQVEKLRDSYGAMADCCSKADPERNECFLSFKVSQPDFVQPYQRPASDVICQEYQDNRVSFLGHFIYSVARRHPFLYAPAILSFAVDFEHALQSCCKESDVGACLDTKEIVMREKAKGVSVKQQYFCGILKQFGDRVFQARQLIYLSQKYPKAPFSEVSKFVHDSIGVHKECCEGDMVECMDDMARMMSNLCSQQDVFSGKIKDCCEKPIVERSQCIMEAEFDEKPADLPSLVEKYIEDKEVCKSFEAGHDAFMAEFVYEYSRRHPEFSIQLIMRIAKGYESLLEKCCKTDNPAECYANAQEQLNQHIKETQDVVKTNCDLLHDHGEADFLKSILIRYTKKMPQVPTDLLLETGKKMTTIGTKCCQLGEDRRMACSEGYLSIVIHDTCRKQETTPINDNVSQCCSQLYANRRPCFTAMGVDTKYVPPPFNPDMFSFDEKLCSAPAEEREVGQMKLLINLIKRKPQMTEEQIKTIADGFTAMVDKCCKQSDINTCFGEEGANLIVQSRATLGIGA
The assay is described as above. As to conditions: compound immobilised on CM5 chip according to Example 8. The procedure: as §7, §8, §9, §10, §11, §12, §13, §14, §15, §16, §17, §18, §19, §20, §21

In another assay the target is Donkey serum albumin (Equus asinus, UniProt Q5XLE4). The description is as above. The conditions noted are these: compound immobilised on CM5 chip according to Example 8. As to the method:
as §7, §8, §9, §10, §11, §12, §13, §14, §15, §16, §17, §18, §19, §20, §21

The next assay concerns the target Human serum albumin (Homo sapiens, UniProt P02768). Described as above. The conditions noted are these: compound immobilised on CM5 chip according to Example 8. The procedure:
as §7, §8, §9, §10, §11, §12, §13, §14, §15, §16, §17, §18, §19, §20, §21

The target in the next assay is Sheep serum albumin (Ovis aries, UniProt P14639). The assay is described as above. As to conditions: compound immobilised on CM5 chip according to Example 8. As to the method:
as §7, §8, §9, §10, §11, §12, §13, §14, §15, §16, §17, §18, §19, §20, §21

The target of the next assay is Bovine serum albumin (Bos taurus, UniProt P02769). The description is as above. The conditions noted are these: compound immobilised on CM5 chip according to Example 8. As to the method:
as §7, §8, §9, §10, §11, §12, §13, §14, §15, §16, §17, §18, §19, §20, §21

In the next assay the target is Rat serum albumin (Rattus norvegicus, UniProt P02770). Described as above. As to conditions: compound immobilised on CM5 chip according to Example 8. The procedure: as §7, §8, §9, §10, §11, §12, §13, §14, §15, §16, §17, §18, §19, §20, §21

Counter-ions that a name gives are not always drawn.

Four compounds from patent US6265588A, “Isoxazole and crotonamide derivatives and their use as pharmaceuticals and diagnostics” (Aventis Pharma Deutschland GmbH, priority 1997, dated 2001) can be followed below.

Chain of Glyceraldehyde phosphate DH (P04406 whole entry): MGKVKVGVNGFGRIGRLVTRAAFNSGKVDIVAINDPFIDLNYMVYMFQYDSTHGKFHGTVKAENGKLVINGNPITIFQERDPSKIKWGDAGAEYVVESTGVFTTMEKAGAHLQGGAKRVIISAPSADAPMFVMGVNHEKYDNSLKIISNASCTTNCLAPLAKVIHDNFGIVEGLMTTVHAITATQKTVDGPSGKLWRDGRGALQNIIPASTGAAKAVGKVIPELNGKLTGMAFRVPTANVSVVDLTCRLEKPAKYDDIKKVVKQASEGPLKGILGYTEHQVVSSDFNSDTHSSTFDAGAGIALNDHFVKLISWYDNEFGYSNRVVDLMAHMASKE
Chain of Dihydroorotate DH (Q02127 whole entry): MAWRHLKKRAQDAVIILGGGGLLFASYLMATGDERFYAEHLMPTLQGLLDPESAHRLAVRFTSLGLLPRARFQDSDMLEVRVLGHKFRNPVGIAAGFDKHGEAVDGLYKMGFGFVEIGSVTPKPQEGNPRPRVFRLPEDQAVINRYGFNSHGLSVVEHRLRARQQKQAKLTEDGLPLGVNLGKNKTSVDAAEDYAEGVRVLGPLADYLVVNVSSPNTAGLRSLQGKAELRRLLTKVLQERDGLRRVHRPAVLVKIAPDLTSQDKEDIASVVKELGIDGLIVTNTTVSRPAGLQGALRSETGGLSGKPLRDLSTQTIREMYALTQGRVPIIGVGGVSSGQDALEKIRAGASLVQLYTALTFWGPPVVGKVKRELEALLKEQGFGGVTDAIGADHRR
Chain of Sheep serum albumin (P14639 25-607): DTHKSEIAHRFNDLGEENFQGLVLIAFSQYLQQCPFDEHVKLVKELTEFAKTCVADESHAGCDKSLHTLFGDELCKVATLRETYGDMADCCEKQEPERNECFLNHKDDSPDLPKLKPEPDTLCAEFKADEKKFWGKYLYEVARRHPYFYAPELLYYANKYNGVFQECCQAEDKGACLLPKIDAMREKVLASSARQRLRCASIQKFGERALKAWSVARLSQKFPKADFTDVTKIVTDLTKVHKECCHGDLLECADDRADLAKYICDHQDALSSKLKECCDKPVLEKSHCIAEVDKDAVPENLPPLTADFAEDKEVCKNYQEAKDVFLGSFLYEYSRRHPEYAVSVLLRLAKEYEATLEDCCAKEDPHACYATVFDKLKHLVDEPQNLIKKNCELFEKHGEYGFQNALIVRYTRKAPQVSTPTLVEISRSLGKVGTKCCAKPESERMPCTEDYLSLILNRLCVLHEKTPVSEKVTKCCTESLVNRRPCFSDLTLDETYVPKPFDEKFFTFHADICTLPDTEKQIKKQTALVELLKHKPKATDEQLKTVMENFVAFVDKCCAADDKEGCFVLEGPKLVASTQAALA
Chain of Bovine serum albumin (P02769 25-607): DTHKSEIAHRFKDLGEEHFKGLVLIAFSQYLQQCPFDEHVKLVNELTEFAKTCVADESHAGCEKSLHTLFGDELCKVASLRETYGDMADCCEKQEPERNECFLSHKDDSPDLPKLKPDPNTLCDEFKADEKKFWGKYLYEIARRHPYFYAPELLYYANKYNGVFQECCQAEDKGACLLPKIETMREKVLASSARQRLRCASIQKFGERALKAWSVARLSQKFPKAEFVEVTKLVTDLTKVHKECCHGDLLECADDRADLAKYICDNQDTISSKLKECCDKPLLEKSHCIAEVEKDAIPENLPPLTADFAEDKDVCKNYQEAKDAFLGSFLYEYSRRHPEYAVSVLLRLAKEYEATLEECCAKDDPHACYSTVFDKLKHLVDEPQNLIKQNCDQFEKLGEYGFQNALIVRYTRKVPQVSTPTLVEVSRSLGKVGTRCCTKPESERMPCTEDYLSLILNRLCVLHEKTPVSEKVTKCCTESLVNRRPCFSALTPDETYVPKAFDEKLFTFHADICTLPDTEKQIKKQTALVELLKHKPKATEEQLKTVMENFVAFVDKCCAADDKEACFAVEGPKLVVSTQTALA
Chain of Mouse serum albumin (P07724 25-608): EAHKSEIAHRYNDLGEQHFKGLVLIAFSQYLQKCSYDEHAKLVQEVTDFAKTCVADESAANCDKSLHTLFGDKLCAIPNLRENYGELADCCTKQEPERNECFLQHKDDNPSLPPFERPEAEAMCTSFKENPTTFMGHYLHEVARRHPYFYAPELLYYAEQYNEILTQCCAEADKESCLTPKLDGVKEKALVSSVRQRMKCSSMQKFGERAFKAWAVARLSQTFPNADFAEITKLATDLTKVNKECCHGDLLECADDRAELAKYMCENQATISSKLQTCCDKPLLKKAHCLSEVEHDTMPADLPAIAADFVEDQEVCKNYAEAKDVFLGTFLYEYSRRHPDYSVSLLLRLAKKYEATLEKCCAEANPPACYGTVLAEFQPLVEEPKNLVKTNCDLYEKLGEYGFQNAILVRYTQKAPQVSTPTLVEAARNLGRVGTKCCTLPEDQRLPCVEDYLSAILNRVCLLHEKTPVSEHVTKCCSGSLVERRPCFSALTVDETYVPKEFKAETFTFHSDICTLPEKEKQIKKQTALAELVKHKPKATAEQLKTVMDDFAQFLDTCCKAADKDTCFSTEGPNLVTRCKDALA
Chain of Rat serum albumin (P02770 25-608): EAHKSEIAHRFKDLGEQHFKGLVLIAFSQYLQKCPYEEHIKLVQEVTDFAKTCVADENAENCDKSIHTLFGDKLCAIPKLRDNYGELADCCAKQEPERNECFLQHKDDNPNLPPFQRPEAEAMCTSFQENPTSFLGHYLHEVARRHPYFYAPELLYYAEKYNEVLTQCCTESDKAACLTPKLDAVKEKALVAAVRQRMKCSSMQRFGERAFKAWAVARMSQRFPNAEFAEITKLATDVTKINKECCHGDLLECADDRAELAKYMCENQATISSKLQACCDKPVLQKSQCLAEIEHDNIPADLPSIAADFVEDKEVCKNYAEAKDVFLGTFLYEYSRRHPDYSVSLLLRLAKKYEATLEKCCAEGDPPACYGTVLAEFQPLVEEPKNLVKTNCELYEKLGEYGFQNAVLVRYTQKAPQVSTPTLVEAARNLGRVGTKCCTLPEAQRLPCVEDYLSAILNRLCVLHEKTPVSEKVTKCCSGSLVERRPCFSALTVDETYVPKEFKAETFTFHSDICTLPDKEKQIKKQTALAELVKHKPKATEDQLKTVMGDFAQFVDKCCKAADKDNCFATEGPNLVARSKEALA
Chain of Donkey serum albumin (Q5XLE4 25-607): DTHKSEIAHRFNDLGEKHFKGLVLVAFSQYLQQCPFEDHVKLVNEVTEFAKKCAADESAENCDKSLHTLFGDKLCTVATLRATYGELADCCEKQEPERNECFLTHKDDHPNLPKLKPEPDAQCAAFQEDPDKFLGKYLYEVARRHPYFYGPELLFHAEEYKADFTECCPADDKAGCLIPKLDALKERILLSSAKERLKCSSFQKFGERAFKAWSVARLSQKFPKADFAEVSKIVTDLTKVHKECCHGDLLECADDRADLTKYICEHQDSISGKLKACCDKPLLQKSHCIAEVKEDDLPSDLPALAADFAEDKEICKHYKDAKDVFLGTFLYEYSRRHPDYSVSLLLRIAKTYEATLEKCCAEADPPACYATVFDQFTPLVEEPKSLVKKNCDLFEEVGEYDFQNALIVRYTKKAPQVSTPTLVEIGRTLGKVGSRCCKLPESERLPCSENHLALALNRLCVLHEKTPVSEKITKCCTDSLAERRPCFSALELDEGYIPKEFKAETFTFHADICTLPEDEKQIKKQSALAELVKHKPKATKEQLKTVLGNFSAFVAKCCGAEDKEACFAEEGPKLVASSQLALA
Chain of Human serum albumin (P02768 25-609): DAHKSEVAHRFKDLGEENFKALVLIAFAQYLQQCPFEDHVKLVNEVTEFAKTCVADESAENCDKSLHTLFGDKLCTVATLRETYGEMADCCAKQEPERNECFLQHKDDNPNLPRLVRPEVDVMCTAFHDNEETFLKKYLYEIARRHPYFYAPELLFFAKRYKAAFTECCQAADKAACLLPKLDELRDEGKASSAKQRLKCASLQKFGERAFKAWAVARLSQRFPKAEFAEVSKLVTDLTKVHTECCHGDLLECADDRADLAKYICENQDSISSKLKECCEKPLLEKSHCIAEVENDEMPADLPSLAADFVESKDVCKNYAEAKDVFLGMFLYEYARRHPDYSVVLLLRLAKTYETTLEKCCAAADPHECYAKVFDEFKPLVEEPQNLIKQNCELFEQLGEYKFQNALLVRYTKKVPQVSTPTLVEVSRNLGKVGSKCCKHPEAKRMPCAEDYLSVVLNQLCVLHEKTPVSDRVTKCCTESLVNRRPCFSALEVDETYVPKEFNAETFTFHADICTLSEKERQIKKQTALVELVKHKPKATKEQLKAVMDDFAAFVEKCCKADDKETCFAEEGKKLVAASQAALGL

For the compound `CC(O)=C(C#N)C(=O)Nc1ccc(C(F)(F)F)cc1` [A 77 1726B, sodium salt of N-(4-trifluoromethylphenyl)-2-cyano-3-hydroxycrotonamide], the “intensity of band around 35 kDa (malate dehydrogenase) in the preparation fraction” value with RAW 264.7 cells is recorded as “markedly increased”.
Turning to `Cc1oncc1C(=O)Nc1ccc(NC(=O)CBr)cc1` [Example 1, 5-Methylisoxazole4-carboxylic acid (4-(2-bromoacetylamino)phenyl)amide], the figures for the IC50 with A20.2.J, in the assay on EL 4 and in the assay with K562 were 0.8 µM, 0.8 µM and 50 µM, respectively.
Turning to `CC(O)=C(C#N)C(=O)Nc1ccc(NC(=O)CBr)cc1` [Example 2], the “Resonance Units, binding of Pyruvate kinase DH” value is recorded as 85 Resonance Units in the assay with Pyruvate kinase DH (enzyme 50 nM), 189 Resonance Units in the assay on Pyruvate kinase DH (enzyme 100 nM) and 505 Resonance Units in the assay with Pyruvate kinase DH (enzyme 250 nM). In addition, the “Resonance Units, binding of Glyceraldehyde phosphate DH” value is listed as 69 Resonance Units in [1] (enzyme 25 nM), 148 Resonance Units in assay [1] (enzyme 50 nM), 297 Resonance Units in [1] (enzyme 100 nM) and 603 Resonance Units in assay [1] (enzyme 250 nM). Also, the “Resonance Units, binding of Dihydroorotate DH” value at Dihydroorotate DH (enzyme 50 nM) was determined as 203 Resonance Units; at Dihydroorotate DH (enzyme 100 nM), 425 Resonance Units; at Dihydroorotate DH (enzyme 250 nM) it was 1064 Resonance Units. Further, the IC50 in the assay on A20.2.J was found to be 15 µM; in the assay with EL 4 it was 6 µM; in the assay on K562 it was 20 µM. Moreover, the “relative binding strengths of the dehydrogenases” value in the assay with dehydrogenases was “the binding of the dihydroorotate DH was the strongest, followed by lactate DH, glyceraldehyde phosphate DH and pyruvate kinase”. Further, the “Resonance Units, binding of serum albumin” value at Mouse serum albumin amounted to 151 Resonance Units; at Chicken serum albumin, 8 Resonance Units; at Donkey serum albumin it was 480 Resonance Units; at Human serum albumin, 294 Resonance Units; at Sheep serum albumin, 331 Resonance Units; at Bovine serum albumin, 50 Resonance Units. In addition, the “Resonance Units, binding of serum albumin” value on Rat serum albumin is reported as 1061 Resonance Units.
With `CC(O)=C(C#N)C(=O)Nc1ccc(OCCCI)cc1` [Example 5, 2-Cyano-3-hydroxybut-2-enecarboxylic acid (4-(3-iodopropoxy)phenyl)amide], the values for the IC50 in the assay with A20.2.J and with EL 4 were 50 µM and 25 µM, respectively.
